Like-named read-outs stand apart in the source and are kept apart here.

This series deals with HeLa Kyoto cells. The series can be described thus: Relative cell viability in HCHT screening (propidium iodide negative nuclei count). It is filed as cell-based. The following applies: HeLa, removal, tinc 0.5 h with 1 (10 µM), read-out: GI50, concentration causing 50% cell growth inhibition. The method in brief:
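HeLa cells pre-incubated with inhibitors at varying concentrations and times, inhibitors removed (or retained in co-incubation variant), then fluorescent reporter added. Live cells counted by automated microscopy as propidium iodide-negative nuclei, normalised to reporter-only wells; GI50 and Hill coefficient fitted from duplicates.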

On to `[O-][S+]1CC(O)C(O)CS1` (stereo not drawn) [compound 17], for which the GI50 (tpre 1 h with inhibitor) amounted to 710 ± 50 µM, the GI50 (tpre 2 h with inhibitor) amounted to 730 ± 10 µM and the GI50 (tpre 4 h with inhibitor) is ~500 µM.

These data come from PMC8179002, “Inhibitors of thiol-mediated uptake” (Chemical Science, 2020).
